From patent US9221861B2, “Multivalent [beta]-1-2-linked mannose oligosaccharides as immunostimulatory compounds and uses thereof” (ABO AKADEMI UNIVERSITY, priority 2011, dated 2015)
“Also recorded” adds a separate entry of the source.

What was measured:
Type in all cases: cell-based, human
[1] = test system: allergen (birch) stimulated PBMC culture; test: Effect on allergen (birch) induced IL-5 production in PBMC culture (Example 2); conditions: PBMC of four birch allergic rhinitis patients; birch extract 50 µg/ml; CM-C8-2010 20 µg/ml; 72 hours (FIG. 6)
Procedure: (§1) The human PBMC were isolated from heparinized blood samples with Ficoll (Ficoll-Paque, Amersham Pharmacia Biotech, Sweden) density gradient centrifugation. The PBMC were washed twice with Hanks' balanced salt solution (HBSS) and suspended in RPMI medium supplemented 5% autologous serum, 2 mM L-glutamine (Fluka Biochemica, Germany) and 100 µg/ml gentamycin (Biological Industries, Israel). The cell suspension was diluted in the RPMI-based culture medium to 10^6 cells/ml and applied on 48-well culture plates (Costar, Cambridge, Mass., USA).
Trivalent acetylated monosaccharide coded CM-C4-2011 was used as a negative control. The PBMC were isolated and cultured as described above. Birch whole allergen extract was used at a concentration of 50 µg/ml and CM-C8-2010 at a concentration of 20 µg/ml. The cultures were incubated for 72 hours. Following stimulation, the production of IL-5 was measured with LINCOplex™-kits using Luminex100™ instrumentation.

[2] = test system: allergen (birch) stimulated PBMC culture; test: Comparison with prior art adjuvants in suppression of birch allergen-induced IL-4, IL-5 and IL-13 in PBMC (Example 3); conditions: 24 hours; for Mean (SD) percentage of Birch induced cytokine response, IL-5: 15 subjects; for Mean (SD) percentage of Birch induced cytokine response, IL-13: 17 subjects; for Mean (SD) percentage of Birch induced cytokine response, IL-4: 19 subjects
Procedure: as §1
The effect of synthetic molecule according to the compound of formula (IV) of the invention coded CM-C8-2010 on the production of IL-4, IL-5 and IL-13, the main Th2-type cytokines promoting allergic inflammation, was studied in an allergen (birch) stimulated PBMC culture of 26 birch allergic patients with allergic rhinitis. The effect was compared to that of 3-deacylated monophosphoryl lipid A (MPL), the non-toxic derivative of lipopolysaccharide of Salmonella minnesota (LPS), and immunostimulatory bacterial DNA sequence (CpG-ODN-1). These molecules have been clinically successfully tested as adjuvants in allergen immunotherapy. Another bacterial DNA sequence (CpG-ODN-2) without immunostimulatory activity was used as a negative control. The PBMC were collected during a strong birch pollen season, were isolated and cultured as described above. Birch whole allergen extract was used at a concentration of 50 µg/ml and CM-C8-2010 at concentrations 200 and 20 µg/ml. CpG-ODN-1 and CpG-ODN-2 were used at a concentration 5 µg/ml and MPL at a concentration 10 µg/ml based on earlier published experiments. The cultures were incubated for 24 hours. Following stimulation, the productions of IL-4, IL-5 and IL-13 were measured with LINCOplex™-kits using Luminex100™ instrumentation. For analysis only the cultures with strong induced cytokine responses were included.

[3] = test system: peripheral blood mononuclear cells (PBMC); test: Induction of cytokines by synthetic β-1,2-linked mannooligosaccharide compounds in PBMC (Example 1); conditions: PBMC of three atopic subjects, 72 h, 20 and 200 μg/ml (FIG. 5), LINCOplex/Luminex
Procedure: as §1
The synthetic oligosaccharides were tested for the production of cytokines IL-4, IL-5, IL-10 and IFN-γ, in peripheral blood mononuclear cells (PBMC) samples of three atopic subjects. The PBMC were stimulated by adding solubilized oligosaccharides in cell culture suspension. The synthetic polyvalent β-1,2-linked oligosaccharides used in this example are a molecule according to the compound of formula (IV) of the invention (coded CM-C8-2010), trivalent monosaccharide (R═H) coded CM-C4-2010 and pentavalent disaccharide (R═O) coded CM-C7-2010. The cytokine responses from PBMC were detected 72 h after beginning of the stimulation by measuring cytokine secretion with high-sensitivity human cytokine LINCOplex™-kits (LINCO Research, St. Charles, Mo., USA) using Luminex^100™ instrumentation. The assays were performed in accordance with the manufacturer's protocol by employing Luminex technology.

[4] = test system: peripheral blood mononuclear cells (PBMC); test: Induction of cytokines by synthetic oligosaccharide RP-I-82 in PBMC (Example 4); conditions: PBMC of three subjects, 24 hours
Procedure: as §1
The synthetic oligosaccharide coded RP-I-82 was tested for the production of cytokines IL-4, IL-5, IL-10, IL-13, TNF and IFN-γ, in peripheral blood mononuclear cells (PBMC) samples of three subjects. The PBMC were stimulated by adding solubilized oligosaccharide in cell culture suspension. The synthetic oligovalent 3-1,2-linked oligosaccharide used in this example was a molecule according to the compound of formula (IV) of the invention (coded RP-I-82). A positive control was acid hydrolyzed Candida albicans mannan (CAM). The cytokine responses from PBMC were detected 24 hours after beginning of the stimulation by measuring cytokine secretion with high-sensitivity human cytokine LINCOplex™-kits (LINCO Research, St. Charles, Mo., USA) using Luminex^100™ instrumentation. The assays were performed in accordance with the manufacturer's protocol by employing Luminex technology.

[5] = PBMC of birch allergic patients

For `CC(=O)OCC1O[C@@H](OC2C(OC(C)=O)[C@H](OC(C)=O)C(COC(C)=O)O[C@@H]2OCCn2cc(COCC(COCc3cn(CCO[C@H]4OC(COC(C)=O)[C@@H](OC(C)=O)C(OC(C)=O)C4O[C@@H]4OC(COC(C)=O)[C@@H](OC(C)=O)C(OC(C)=O)C4OC(C)=O)nn3)OCc3cn(CCO[C@H]4OC(COC(C)=O)[C@@H](OC(C)=O)C(OC(C)=O)C4O[C@@H]4OC(COC(C)=O)[C@@H](OC(C)=O)C(OC(C)=O)C4OC(C)=O)nn3)nn2)C(OC(C)=O)C(OC(C)=O)[C@@H]1OC(C)=O` (stereo partly drawn) [CM-C8-2010, 1,2,3-tris[1-[(2,3,4,6-tetra-O-acetyl-β-D-mannopyranosyl)-(1→2)-(3,4,6-tri-O-acetyl-α-D-mannopyranosyloxyethyl)]-4-[methyl-1-oxy]triazolyl]propane], the “suppression of birch allergen induced IL-5 response” value [1] was “effectively suppressed”, the “Mean (SD) percentage of Birch induced cytokine response, IL-5” value ([2]; 20 μg/ml) was 86.0 (25.9) % and the “Mean (SD) percentage of Birch induced cytokine response, IL-13” value ([2]; 20 μg/ml) was 85.9 (97.5) %. For the same compound, the “Mean (SD) percentage of Birch induced cytokine response, IL-4” value ([2]; 20 μg/ml) was 90.8 (22.7) %, the “Mean (SD) percentage of Birch induced cytokine response, IL-5” value ([2]; 200 μg/ml) was 70.6 (22.6) % and the “Mean (SD) percentage of Birch induced cytokine response, IL-13” value ([2]; 200 μg/ml) was 58.5 (48.0) %. The “Mean (SD) percentage of Birch induced cytokine response, IL-4” value ([2]; 200 μg/ml) was 78.6 (24.3) %, the “suppression of birch allergen induced IL-4 response (in words)” value [2, 5] was “more effectively than CpG-ODN-1 or MPL” and the “suppression of birch allergen induced IL-5 response (in words)” value [2, 5] was “more effectively than CpG-ODN-1 or MPL”. For the same compound, the “suppression of birch allergen induced IL-13 response (in words)” value [2, 5] was “more effectively than CpG-ODN-1 or MPL”, the “production of IFN-γ (inducer strength)” value [3] was “strong inducer” and the “production of IL-10 (inducer strength)” value [3] was “strong inducer”. The “production of IFN-γ (inducer strength)” value ([3]; listed as formula (IV)) was “most active substance” and the “production of IL-10 (inducer strength)” value ([3]; listed as formula (IV)) was “most active substance”.
`CC(=O)OC[C@H]1O[C@@H](O[C@@H]2[C@@H](OCCCn3cc(COCC(COCc4cn(CCCO[C@H]5O[C@H](COC(C)=O)[C@@H](OC(C)=O)[C@H](OC(C)=O)[C@@H]5O[C@@H]5O[C@H](COC(C)=O)[C@@H](OC(C)=O)[C@H](OC(C)=O)[C@@H]5OC(C)=O)nn4)OCc4cn(CCCO[C@H]5O[C@H](COC(C)=O)[C@@H](OC(C)=O)[C@H](OC(C)=O)[C@@H]5O[C@@H]5O[C@H](COC(C)=O)[C@@H](OC(C)=O)[C@H](OC(C)=O)[C@@H]5OC(C)=O)nn4)nn3)O[C@H](COC(C)=O)[C@@H](OC(C)=O)[C@@H]2OC(C)=O)[C@@H](OC(C)=O)[C@@H](OC(C)=O)[C@@H]1OC(C)=O` (stereo partly drawn) [RP-I-82, 1,2,3-tris[1-[(2,3,4,6-tetra-O-acetyl-β-D-mannopyranosyl)-(1→2)-(3,4,6-tri-O-acetyl-α-D-mannopyranosyloxypropyl)]-4-[methyl-1-oxy]triazolyl]propane] was tested, and the “Production of cytokines, mean (SD), IFN-γ” value ([4]; 20 μg/ml) was 10 (15) pg/ml, the “Production of cytokines, mean (SD), IL-4” value ([4]; 20 μg/ml) was 2.6 (0.8) pg/ml and the “Production of cytokines, mean (SD), IL-5” value ([4]; 20 μg/ml) was 0.1 (0.2) pg/ml. The “Production of cytokines, mean (SD), IL-10” value ([4]; 20 μg/ml) was 110 (109) pg/ml, the “Production of cytokines, mean (SD), IL-13” value ([4]; 20 μg/ml) was 0.6 (0.2) pg/ml and the “Production of cytokines, mean (SD), TNF” value ([4]; 20 μg/ml) was 52 (26) pg/ml. For the same compound, the “Production of cytokines, mean (SD), IFN-γ” value ([4]; 200 μg/ml) was 18 (25) pg/ml, the “Production of cytokines, mean (SD), IL-4” value ([4]; 200 μg/ml) was 2.7 (0.2) pg/ml and the “Production of cytokines, mean (SD), IL-5” value ([4]; 200 μg/ml) was 0.2 (0.2) pg/ml. For the same compound, the “Production of cytokines, mean (SD), IL-10” value ([4]; 200 μg/ml) was 843 (253) pg/ml, the “Production of cytokines, mean (SD), IL-13” value ([4]; 200 μg/ml) was 0.5 (0.0) pg/ml and the “Production of cytokines, mean (SD), TNF” value ([4]; 200 μg/ml) was 295 (146) pg/ml. For the same compound, the “IFN-γ production, inducer strength (in words)” value [4] was “moderate inducer”, the “IL-4 production (in words)” value [4] was “not seen at all” and the “IL-5 production (in words)” value [4] was “not seen at all”. The “IL-10 production, inducer strength (in words)” value [4] was “strong inducer; also recorded: considerably higher than for the control”, the “IL-13 production (in words)” value [4] was “not seen at all” and the “TNF production, inducer strength (in words)” value [4] was “strong inducer; also recorded: considerably higher than for the control”. For the same compound, the “pattern of cytokine induction in comparison to the blank sample (no stimulation)” value [4] was “selective induction”.
